# Target: T1, human M2 receptor (Homo sapiens, UniProt P08172)
# T1 sequence (P08172 1-466): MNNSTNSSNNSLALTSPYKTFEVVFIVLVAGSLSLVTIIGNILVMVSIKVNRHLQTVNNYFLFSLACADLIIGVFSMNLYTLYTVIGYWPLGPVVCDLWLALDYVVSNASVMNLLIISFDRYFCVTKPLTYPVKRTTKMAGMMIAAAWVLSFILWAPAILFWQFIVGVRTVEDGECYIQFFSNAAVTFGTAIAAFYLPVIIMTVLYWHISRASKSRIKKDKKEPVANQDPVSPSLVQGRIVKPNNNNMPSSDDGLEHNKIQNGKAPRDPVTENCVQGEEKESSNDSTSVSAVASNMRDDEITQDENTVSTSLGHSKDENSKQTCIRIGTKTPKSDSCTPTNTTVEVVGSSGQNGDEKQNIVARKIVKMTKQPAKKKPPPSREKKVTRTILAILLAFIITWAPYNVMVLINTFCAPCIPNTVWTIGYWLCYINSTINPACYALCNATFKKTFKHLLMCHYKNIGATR
# Test: Functional M2-GIRK1/4 activation test: allosteric potency (EC50) and efficiency
# Conditions: for EC50: Receptor activity EC50, CHO-DUKX-M2-GIRK cells, acetylcholine at EC20, in some cases mean of two or more determinations; for Emax: read-out: Efficiency, boosting of the acetylcholine effect at EC20 acetylcholine concentration; for Emax / Efficiency: CHO-DUKX-M2-GIRK cells; for Efficiency: boosting of the acetylcholine effect at EC20 acetylcholine concentration
EC50 [nM],Emax [%],Efficiency [%],SMILES
111,96.5,–,"CC1C(O)C2(CC2)C(=O)N1c1ccc2c(=O)c(C(=O)N[C@H](C3CC3)C(F)(F)F)cn(-c3ncc(F)cc3F)c2n1 (stereo partly drawn) [Example 114, N-[(1R)-1-Cyclopropyl-2,2,2-trifluoroethyl]-1-(3,5-difluoropyridin-2-yl)-7-[7-hydroxy-6-methyl-4-oxo-5-azaspiro[2.4]hept-5-yl]-4-oxo-1,4-dihydro-1,8-naphthyridine-3-carboxamide]"
20,94.5,–,"O=C(NC(c1c(F)cccc1F)C(F)(F)F)c1cn(-c2ncc(F)cc2F)c2nc(N3C[C@@H](O)CC3=O)ccc2c1=O (stereo partly drawn) [Example 9, N-[1-(2,6-Difluorophenyl)-2,2,2-trifluoroethyl]-1-(3,5-difluoropyridin-2-yl)-7-[(4S)-4-hydroxy-2-oxopyrrolidin-1-yl]-4-oxo-1,4-dihydro-1,8-naphthyridine-3-carboxamide]"
18,98,–,"O=C(N[C@H](C1CC1)C(F)(F)F)c1cn(-c2ncc(F)cc2F)c2nc(N3CC4CC4(O)C3)ccc2c1=O (single isomer, unassigned) [Example 38]"
54,100,–,"O=C(NC1(C(F)(F)F)CCCC1)c1cn(-c2ncc(F)cc2F)c2nc(N3C[C@@H](O)CC3=O)ccc2c1=O [Example 79, 1-(3,5-Difluoropyridin-2-yl)-7-[(4S)-4-hydroxy-2-oxopyrrolidin-1-yl]-4-oxo-N-[1-(trifluoromethyl)cyclopentyl]-1,4-dihydro-1,8-naphthyridine-3-carboxamide]"
22,100,–,"O=C(NC(C1CC1)C(F)(F)F)c1cn(-c2ncc(F)cc2F)c2nc(N3CC4CC4(O)C3)ccc2c1=O (stereo not drawn) [Example 36, N-[1-Cyclopropyl-2,2,2-trifluoroethyl]-1-(3,5-difluoropyridin-2-yl)-7-[1-hydroxy-3-azabicyclo[3.1.0]hex-3-yl]-4-oxo-1,4-dihydro-1,8-naphthyridine-3-carboxamide]"
1600,98,–,"CC1(NC(=O)c2cn(-c3ncc(F)cc3F)c3nc(N4C[C@@H](O)CC4=O)ccc3c2=O)CC(F)(F)C1 [Example 172, N-(3,3-Difluoro-1-methylcyclobutyl)-1-(3,5-difluoropyridin-2-yl)-7-[(4S)-4-hydroxy-2-oxopyrrolidin-1-yl]-4-oxo-1,4-dihydro-1,8-naphthyridine-3-carboxamide]"
47,94.5,–,"C[C@@H]1CN(c2ccc3c(=O)c(C(=O)N[C@@H](C4CC4)C(F)(F)F)cn(-c4ncc(F)cc4F)c3n2)C(=O)N1 [Example 142, N-[(1S)-1-cyclopropyl-2,2,2-trifluoroethyl]-1-(3,5-difluoropyridin-2-yl)-7-[(4R)-4-methyl-2-oxoimidazolidin-1-yl]-4-oxo-1,4-dihydro-1,8-naphthyridine-3-carboxamide]"
190,–,94.50,"CC[C@H](NC(=O)c1cn(-c2ncc(F)cc2F)c2nc(N3CC(O)C(C)C3=O)ccc2c1=O)C(F)(F)F (single isomer, unassigned) [Example 110]"
330,100,–,"CC[C@@H](NC(=O)c1cn(-c2ncc(F)cc2F)c2nc(N3C[C@@H](O)[C@@H](O)C3)ccc2c1=O)C(F)(F)F [Example 41, 1-(3,5-Difluoropyridin-2-yl)-7-[(3R,4S)-3,4-dihydroxypyrrolidin-1-yl]-4-oxo-N-[(2R)-1,1,1-trifluorobutan-2-yl]-1,4-dihydro-1,8-naphthyridine-3-carboxamide]"
51,–,99.00,"O=C(N[C@H](C1CC1)C(F)(F)F)c1cn(-c2ncc(F)cc2F)c2nc(N3CC4CC4(O)C3)ccc2c1=O (single isomer, unassigned) [Example 39]"
24,96,–,"CC(NC(=O)c1cn(-c2ncc(F)cc2F)c2nc(N3CCNC3=O)ccc2c1=O)C(F)(F)C(F)(F)F (single isomer, unassigned) [Example 162, 1-(3,5-Difluoropyridin-2-yl)-4-oxo-7-(2-oxoimidazolidin-1-yl)-N-[3,3,4,4,4-pentafluorobutan-2-yl]-1,4-dihydro-1,8-naphthyridine-3-carboxamide]"
230,100,–,"O=C(N[C@H](C1CC1)C(F)(F)F)c1cn(-c2ncccc2F)c2nc(N3C[C@@H](O)CC3=O)ccc2c1=O [Example 139, N-[(1R)-1-Cyclopropyl-2,2,2-trifluoroethyl]-1-(3-fluoropyridin-2-yl)-7-[(4S)-4-hydroxy-2-oxopyrrolidin-1-yl]-4-oxo-1,4-dihydro-1,8-naphthyridine-3-carboxamide]"
240,97.8,–,"C[C@H](NC(=O)c1cn(-c2ncc(F)cc2F)c2nc(N3C[C@@H](O)CC3=O)ccc2c1=O)C(F)(F)F [Example 3, 1-(3,5-Difluoropyridin-2-yl)-7-[(4S)-4-hydroxy-2-oxopyrrolidin-1-yl]-4-oxo-N-[(2S)-1,1,1-trifluoropropan-2-yl]-1,4-dihydro-1,8-naphthyridine-3-carboxamide]"

# Further lines, the compound ahead of its results:
SMILES,EC50 [nM],Emax [%],Efficiency [%]
"CC(NC(=O)c1cn(-c2ncc(F)cc2F)c2nc(N3C[C@@H](O)[C@H](O)C3)ccc2c1=O)C(F)(F)C(F)(F)F (mixture of isomers) [Example 88, 1-(3,5-Difluoropyridin-2-yl)-7-[(3R,4R)-3,4-dihydroxypyrrolidin-1-yl]-4-oxo-N-[3,3,4,4,4-pentafluorobutan-2-yl]-1,4-dihydro-1,8-naphthyridine-3-carboxamide]",59,99.5,–
"CC(NC(=O)c1cn(-c2ncc(F)cc2F)c2nc(N3CCC[C@@H]3CO)ccc2c1=O)C(F)(F)C(F)(F)F (single isomer, unassigned) [Example 175]",60,98.5,–
"CC[C@@H](NC(=O)c1cn(-c2ncc(F)cc2F)c2nc(NCC(F)F)ccc2c1=O)C(F)(F)F [Example 70, 7-[(2,2-Difluoroethyl)amino]-1-(3,5-difluoropyridin-2-yl)-4-oxo-N-[(2R)-1,1,1-trifluorobutan-2-yl]-1,4-dihydro-1,8-naphthyridine-3-carboxamide]",220,91,–
"CC(C)(NC(=O)c1cn(-c2ncc(F)cc2F)c2nc(N3CC(CO)(CO)C3)ccc2c1=O)C(F)(F)C(F)(F)F [Example 184, 7-[3,3-Bis(hydroxymethyl)azetidin-1-yl]-1-(3,5-difluoropyridin-2-yl)-4-oxo-N-(3,3,4,4,4-pentafluoro-2-methylbutan-2-yl)-1,4-dihydro-1,8-naphthyridine-3-carboxamide]",130,100,–
"CC[C@@H](NC(=O)c1cn(-c2ncc(F)cc2Cl)c2nc(N3CCC(C)(O)C3)ccc2c1=O)C(F)(F)F (mixture of isomers) [Example 49, 1-(3-Chloro-5-fluoropyridin-2-yl)-7-[3-hydroxy-3-methylpyrrolidin-1-yl]-4-oxo-N-[(2R)-1,1,1-trifluorobutan-2-yl]-1,4-dihydro-1,8-naphthyridine-3-carboxamide]",560,97,–
"O=C(NC(C(F)(F)F)C(F)(F)F)c1cn(-c2ncc(F)cc2F)c2nc(N3CCCC[C@@H]3CO)ccc2c1=O [Example 178, 1-(3,5-Difluoropyridin-2-yl)-N-(1,1,1,3,3,3-hexafluoropropan-2-yl)-7-[(2R)-2-(hydroxymethyl)piperidin-1-yl]-4-oxo-1,4-dihydro-1,8-naphthyridine-3-carboxamide]",56,100,–
CC(NC(=O)c1cn(-c2ncc(F)cc2F)c2nc(N3C[C@@H](O)[C@H](O)C3)ccc2c1=O)(C1CC1)C(F)(F)F (stereo partly drawn) [Example 153],200,100,–
"O=C(N[C@H](C1CC1)C(F)(F)F)c1cn(-c2ncccc2F)c2nc(N3CC4CC4(O)C3)ccc2c1=O (mixture of isomers) [Example 135, N-[(1R)-1-Cyclopropyl-2,2,2-trifluoroethyl]-1-(3-fluoropyridin-2-yl)-7-[(1S)-1-hydroxy-3-azabicyclo[3.1.0]hex-3-yl]-4-oxo-1,4-dihydro-1,8-naphthyridine-3-carboxamide]",97,100,–
"O=C(Nc1c(Cl)cccc1Cl)c1cn(-c2ncc(F)cc2F)c2nc(N3C[C@@H](O)[C@@H](O)C3)ccc2c1=O [Example 66, N-(2,6-Dichlorophenyl)-1-(3,5-difluoropyridin-2-yl)-7-[(3R,4S)-3,4-dihydroxypyrrolidin-1-yl]-4-oxo-1,4-dihydro-1,8-naphthyridine-3-carboxamide]",310,92.5,–
"O=C(N[C@H](C1CC1)C(F)(F)F)c1cn(-c2ncccc2F)c2nc(N3CC4C[C@@]4(O)C3)ccc2c1=O (single isomer, unassigned) [Example 136]",64,97.5,–
"O=C(NC(c1ccccc1Cl)C(F)(F)F)c1cn(-c2ncc(F)cc2F)c2nc(N3C[C@@H](O)[C@H](O)C3)ccc2c1=O (mixture of isomers) [Example 83, N-[1-(2-Chlorophenyl)-2,2,2-trifluoroethyl]-1-(3,5-difluoropyridin-2-yl)-7-[(3R,4R)-3,4-dihydroxypyrrolidin-1-yl]-4-oxo-1,4-dihydro-1,8-naphthyridine-3-carboxamide]",17,100,–
